Like-named read-outs stand apart in the source and are kept apart here. Ends that are not written are not given here.
Tests used:
[1] = test system: LPS-induced TNF in RAW 264.7 macrophage cells; assay: Inhibition of LPS-induced TNF in RAW 264.7 macrophages (L929 cytotoxic assay); assay type: cell-based, mouse; conditions: for depression of TNF induction by aspirated medium containing peptide: fresh RAW cells
Protocol: RAW 264.7 macrophage cells were grown by seeding 10^6 cells into a 162 cm^2 cell culture flask and incubated at 37° C., 5% CO2 for 1 week. RAW cell media [(Dulbecco's Modified Eagle Medium with Hepes buffer 450 ml; 2.4 mML-glutamine 3 ml (400 mM); Pen/Strep 3 ml (10^4 U/ml of Pen, 1 mg/ml strep); and 10% heat inactivated fetal bovine serum (FBS) 50 ml)] was then completely removed from flasks. 10 mls of cell dissociation solution (Sigma) was added to each flask and inc; bated at 37° C. for 10 minutes. Cells were removed from flasks, diluted in RAW cell media and centrifuged for 6 minutes. The cell pellet was resuspended in 5 ml of media/flask used, 100 μl cell suspension was removed and added to 400 μl of trypan blue and cells were counted using a hemocytometer. The cell suspension was diluted to 1×10^6 cells/ml and 1 ml of suspension was added per well of a 24 well plate. The 24 well plates were incubated at 37° C., 5% CO2 overnight for use in the assay.
After an overnight incubation, the media was aspirated from all the wells. 100 μl of Lipopolysaccharide (LPS) was added at 100 ng/100 μl. CEME, CEMA or MBI 29 was added at the desired concentration/100 μl to specified wells. […] The plates were then incubated for six hours at 37° C., 5% CO2. The supernatant was then removed from the wells and stored overnight at 4° C. For those wells in which whole bacteria were added directly to the wells, the supernatant was centrifuged in 0.2 μm filter eppendorf tubes for 5 minutes.
The supernatants were then used in cell cytotoxic L929 assay. The samples were transferred to 96 well plates. 50 μl of TNF media was added to all the wells in all the plates except to those wells in the first row. 10 μl of murine TNF standard (20 ng/ml) and 90 μl of TNF media was added in duplicate to the plate and diluted 1:2 down the plate to the second to last row. Test samples (75 μl), comprising the supernatants from the RAW cell assays, were added to separate rows in duplicate and diluted 1:3 to the second to last rows.
TNF-sensitive L929 mouse fibroblast cells were grown by seeding 10^6 cells into a 162 cm^2 cell culture flask and left to grow for 1 week. L929 cells were removed from the flask with 10 mls of trypsin-EDTA/flask and incubated 3-5 minutes. Cell suspension was diluted and centrifuged for 6 minutes. The pellet was resuspended in 5 mls of fresh L929 media/flask and counted (same as RAW cells). Cell suspension was diluted to 10^6 cells/ml. 100 μl was used to inoculate each well of the 96 well plates with the supernatants. (L929 Growth Media was the same as RAW cell media except instead of FBS, 50 mls of 10% heat inactivated horse serum was utilized; TNF Assay Media was the same as RAW cell media except 4 μg/ml Actinomycin D was added.)
The plates were incubated at 37° C. at 5% CO2 for 2 days. The media was then aspirated and replaced with 100 μl of the dye MTT (0.5 mg/ml) in modified Eagle Medium without phenol red. The plates were then incubated at 37° C. at 5% CO2 for 3 hours. The dye was then removed and replaced with 100 μl of absolute ethanol. […]
The plates were read at 570 nm in a ELISA plate reader with 690 nm reference filter. […]
TNF levels were measured six hours after the addition of E. coli 0111:B4 or E. coli Bort LPS (FIGS. 5a, 5b, 5c and FIGS. 6a and 6c as labeled). […]
In order to determine how rapidly the cationic peptides reduced LPS-induced TNF production, E. coli 0111:B4 was added at time 0 to RAW macrophages. […] Levels of TNF were measured after 6 hours. […]

P. aeruginosa [2] = assay: Effect of formulation on bactericidal activity (killing, survivors over time); assay type: cell-based
Protocol: (§1) Effect of formulation on bactericidal activity and MIC was determined using the test solutions listed below.

S. typhimurium = S. typhimurium (C610)
Protocol: as §1
(§2) The media used in this experiment was Cation Adjusted Muller Hinton (CAMHB), and CAMHB +8 mM citrate.

E. facaelis = E. facaelis (C625)
Protocol: as §1, §2

P. aeruginosa [3] = conditions: P. aeruginosa (H103)
Protocol: as §1, §2

[4] = mice
Protocol: Immediately afterwards LPS (10 or 20 μg) in 100 μl is injected. The mice are observed at 24 and 48 hours after injections and survivors noted.

Protocol for A. calcoacet.: as §1, §2
Protocol for E. cloacae: as §1, §2
Protocol for E. coli: as §1, §2

Compound: CC[C@H](C)[C@H](NC(=O)[C@H](CC(C)C)NC(=O)[C@H](C)NC(=O)[C@@H]1CCCN1C(=O)[C@H](CC(C)C)NC(=O)CNC(=O)[C@@H](NC(=O)[C@@H](NC(=O)[C@H](CC(C)C)NC(=O)[C@@H](NC(=O)[C@H](CCCCN)NC(=O)[C@H](CCCCN)NC(=O)[C@@H](NC(=O)[C@H](C)NC(=O)[C@@H](NC(=O)[C@@H](NC(=O)[C@H](CC(C)C)NC(=O)[C@H](CCCCN)NC(=O)[C@H](CCCCN)NC(=O)[C@@H](NC(=O)[C@H](Cc1ccccc1)NC(=O)[C@H](CO)NC(=O)[C@H](CCCCN)NC(=O)[C@H](Cc1c[nH]c2ccccc12)NC(=O)[C@@H](N)CCCCN)[C@@H](C)CC)[C@@H](C)O)[C@@H](C)O)C(C)C)C(C)C)[C@@H](C)O)[C@@H](C)O)C(=O)N[C@@H](CO)C(=O)O [MBI 29]
- TNF induction in RAW cells preincubated with peptide and washed ([1]; 20 μg peptide 60 minutes, washed 3 times, then 10 ng or 100 ng LPS): 14,000-20,000 Units of TNF per ml
- inhibition of TNF induction by LPS ([1]; E. coli 0111:B4 at time 0, peptide added at 0, 30 and 60 minutes, TNF after 6 hours): inhibited TNF induction by LPS in a similar manner to polymyxin B
- reduction of LPS-induced TNF when added after LPS ([1]; added 60 minutes after the addition of LPS): effective
- depression of TNF induction by aspirated medium containing peptide ([1]; 10 ng E. coli LPS): 98.5%
- depression of TNF induction by aspirated medium containing peptide ([1]; 100 ng E. coli LPS): 75%

Compound: KWKSFIKKLTSAAKKVVTTAKPLISS [MBI 26]
- Survivors at Time (min.) (P. aeruginosa [2]; Citrate (0.129 M) +Ascorbic Acid (100 mM), MBI 26 10 MG/ML, 0 min): 1.3 × 10^7
- Survivors at Time (min.) (P. aeruginosa [2]; Citrate (0.129 M) +Ascorbic Acid (100 mM), MBI 26 10 MG/ML, 15 min): 0
- Survivors at Time (min.) (P. aeruginosa [2]; Citrate (0.129 M) +Ascorbic Acid (100 mM), MBI 26 10 MG/ML, 30 min): 0
- Survivors at Time (min.) (P. aeruginosa [2]; Citrate (0.129 M) +Ascorbic Acid (100 mM), MBI 26 10 MG/ML, 60 min): 0
- Survivors at Time (min.) (P. aeruginosa [2]; Citrate (0.129 M), MBI 26 10 MG/ML, 0 min): 1.1 × 10^7
- Survivors at Time (min.) (P. aeruginosa [2]; Citrate (0.129 M), MBI 26 10 MG/ML, 15 min): 0
- Survivors at Time (min.) (P. aeruginosa [2]; Citrate (0.129 M), MBI 26 10 MG/ML, 30 min): 0
- Survivors at Time (min.) (P. aeruginosa [2]; Citrate (0.129 M), MBI 26 10 MG/ML, 60 min): 0
- Survivors at Time (min.) (P. aeruginosa [2]; Citrate-Dextrose, MBI 26 10 MG/ML, 0 min): 9 × 10^6
- Survivors at Time (min.) (P. aeruginosa [2]; Citrate-Dextrose, MBI 26 10 MG/ML, 15 min): 20
- Survivors at Time (min.) (P. aeruginosa [2]; Citrate-Dextrose, MBI 26 10 MG/ML, 30 min): 0
- Survivors at Time (min.) (P. aeruginosa [2]; Citrate-Dextrose, MBI 26 10 MG/ML, 60 min): 0
- Survivors at Time (min.) (P. aeruginosa [2]; Citrate-Phosphate Dextrose, MBI 26 10 MG/ML, 0 min): 0
- Survivors at Time (min.) (P. aeruginosa [2]; Citrate-Phosphate Dextrose, MBI 26 10 MG/ML, 30 min): 0
- Survivors at Time (min.) (P. aeruginosa [2]; Citrate-Phosphate Dextrose, MBI 26 10 MG/ML, 60 min): 0
- Survivors at Time (min.) (P. aeruginosa [2]; Dextran, MBI 26 (20 μg), 0 min): 1.9 × 10^7
- Survivors at Time (min.) (P. aeruginosa [2]; Dextran, MBI 26 (20 μg), 15 min): 1.2 × 10^6
- Survivors at Time (min.) (P. aeruginosa [2]; Dextran, MBI 26 (20 μg), 30 min): 1 × 10^6
- Survivors at Time (min.) (P. aeruginosa [2]; Dextran, MBI 26 (20 μg), 60 min): 8.5 × 10^5
- MIC (E. coli; E. coli (111:B4), CAMHB): 8 µg/mL
- MIC (E. coli; E. coli (111:B4), CAMHB + Citrate (8 mM)): 2 µg/mL
- MIC (E. coli; E. coli (Bort), CAMHB): 16 µg/mL
- MIC (E. coli; E. coli (Bort), CAMHB + Citrate (8 mM)): 8 µg/mL
- MIC (E. coli; E. coli (UB 1005), CAMHB): 4 µg/mL
- MIC (E. coli; E. coli (UB 1005), CAMHB + Citrate (8 mM)): 2 µg/mL
- MIC (S. typhimurium; CAMHB): 8 µg/mL
- MIC (S. typhimurium; CAMHB + Citrate (8 mM)): 2 µg/mL
- MIC (E. facaelis; CAMHB): 16 µg/mL
- MIC (E. facaelis; CAMHB + Citrate (8 mM)): >32 µg/mL
- MIC (A. calcoacet.; A. calcoacet (C403), CAMHB): 1 µg/mL
- MIC (A. calcoacet.; A. calcoacet (C403), CAMHB + Citrate (8 mM)): 1 µg/mL
- MIC (A. calcoacet.; A. calcoacet. (C402), CAMHB): 8 µg/mL
- MIC (A. calcoacet.; A. calcoacet. (C402), CAMHB + Citrate (8 mM)): 4 µg/mL
- MIC (E. cloacae; E. cloacae (C601), CAMHB): 8 µg/mL
- MIC (E. cloacae; E. cloacae (C601), CAMHB + Citrate (8 mM)): 4 µg/mL
- MIC (E. cloacae; E. cloacae (C602), CAMHB): 8 µg/mL
- MIC (E. cloacae; E. cloacae (C602), CAMHB + Citrate (8 mM)): 4 µg/mL
- MIC (E. cloacae; E. cloacae (C603), CAMHB): 4 µg/mL
- MIC (E. cloacae; E. cloacae (C603), CAMHB + Citrate (8 mM)): 2 µg/mL
- MIC (P. aeruginosa [3]; CAMHB): 16 µg/mL
- MIC (P. aeruginosa [3]; CAMHB + Citrate (8 mM)): 2 µg/mL
- non-toxic dose [4]: up to 30.6 mg/kg

Reference: patent publication US6906035B2, “Antimicrobial cationic peptides” (priority 1995, dated 2005)
